# In ChEMBL document CHEMBL1124898, “Novel agents effective against solid tumors: the diarylsulfonylureas. Synthesis, activities, and analysis of quantitative structure-activity relationships” (J Med Chem, 1990):
# Tests used:
# [1] = test system: CCRF-CEM; assay: Concentration required to inhibit growth of CCRF-CEM cells in culture for 72 hr to 50% of control growth; format: functional, cell-based; conditions: Homo sapiens
# [2] = Antitumor activity in vivo against the 6C3HED lymphosarcoma, dosed for 8 days at 300 mg/kg; conditions: Mus musculus, 192 h
SMILES,IC50 [1],inhibition in vivo at 300 mg/kg [2]
Cc1ccc(S(=O)(=O)NC(=O)Nc2ccc3c(c2)CCC3)cc1,15.7 µg/mL,5%
COc1cc(Cl)c(Cl)cc1NC(=O)NS(=O)(=O)c1ccc(C)cc1,> 20 µg/mL,3%
CC(C)c1ccc(S(=O)(=O)NC(=O)Nc2ccc(Cl)cc2)cc1,8.7 µg/mL,65%
COc1cccc(S(=O)(=O)NC(=O)Nc2ccc(Cl)cc2)c1,8 µg/mL,100%
O=C(Nc1ccc(Cl)cc1)NS(=O)(=O)c1ccc([N+](=O)[O-])cc1,12.1 µg/mL,70%
COc1ccc(NC(=O)NS(=O)(=O)c2ccc(C)cc2)cc1,> 20 µg/mL,6%
Nc1ccc(S(=O)(=O)NC(=O)Nc2ccc(Cl)cc2)cc1,13.9 µg/mL,43%
CCOc1ccc(S(=O)(=O)NC(=O)Nc2ccc(Cl)cc2)cc1,13 µg/mL,100%
O=C(Nc1ccc2c(c1)OCO2)NS(=O)(=O)c1ccc(Cl)cc1,> 20 µg/mL,28%
O=C(NCCc1ccccc1)NS(=O)(=O)c1ccc2c(c1)CCC2,> 20 µg/mL,0%
Cc1ccc(S(=O)(=O)NC(=O)NCc2ccccc2)cc1,> 20 µg/mL,0%
Cc1ccc(S(=O)(=O)NC(=O)NCc2ccc(Cl)cc2)cc1,> 20 µg/mL,14%
Cc1ccc(S(=O)(=O)NC(=O)Nc2ccc(N(C)C)cc2)cc1,> 20 µg/mL,51%
Cc1ccc(S(=O)(=O)NC(=O)Nc2cccc(Cl)c2Cl)cc1,> 20 µg/mL,37%
CCc1cccc(S(=O)(=O)NC(=O)Nc2ccc(Cl)cc2)c1,10.4 µg/mL,95%
Cc1ccc(S(=O)(=O)NC(=O)Nc2cc(F)cc(F)c2)cc1,> 20 µg/mL,52%
COc1ccc(S(=O)(=O)NC(=O)Nc2ccc(Cl)cc2)cc1OC,> 20 µg/mL,43%
CCCCCCCCc1ccc(S(=O)(=O)NC(=O)Nc2ccc(Cl)cc2)cc1,9 µg/mL,9%
CC(=O)Nc1ccc(S(=O)(=O)NC(=O)Nc2ccc(C(F)(F)F)cc2)cc1,> 20 µg/mL,22%
Cc1ccc(S(=O)(=O)NC(=O)Nc2ccncc2)cc1,> 20 µg/mL,24%
CCCOc1cccc(NC(=O)NS(=O)(=O)c2ccc(C)cc2)c1,> 20 µg/mL,0%
Cc1ccc(S(=O)(=O)NC(=O)Nc2cccc(Cl)c2)cc1,> 20 µg/mL,13%
Cc1ccc(S(=O)(=O)NC(=O)Oc2ccc(Cl)cc2)cc1,> 20 µg/mL,43%
COC(=O)c1ccc(S(=O)(=O)NC(=O)Nc2ccc(Cl)cc2)cc1,17.4 µg/mL,49%
Cc1ccc(S(=O)(=O)NC(=O)Nc2ccc(S(N)(=O)=O)cc2)cc1,,27%
Cc1ccc(S(=O)(=O)NC(=O)Nc2cc(C)cc(C)c2)cc1,> 20 µg/mL,9%
Cc1ccc(S(=O)(=O)NC(=O)Nc2cccc(C)c2C)cc1,,8%

SMILES,IC50 [1],inhibition in vivo at 300 mg/kg [2]
Cc1ccc(S(=O)(=O)NC(=O)NC2CCC(C)CC2)cc1 (configuration not stated),> 20 µg/mL,2%
Cc1ccc(S(=O)(=O)NC(=O)NCCc2ccccc2)cc1,> 20 µg/mL,24%
Cc1ccc(S(=O)(=O)NC(=O)Nc2ccc(S(C)(=O)=O)cc2)cc1,> 20 µg/mL,7%
Cc1ccc(S(=O)(=O)NC(=O)Nc2ccc(OC(F)F)cc2)cc1,,15%
Cc1ccc(S(=O)(=O)NC(=O)Nc2cccc(C)c2)cc1,> 20 µg/mL,0%
O=C(Nc1ccc(Cl)cc1)NS(=O)(=O)c1ccc2c(c1)OCCO2,13.5 µg/mL,49%
Cc1ccc(S(=O)(=O)NC(=O)N(C)c2ccc(Cl)cc2)cc1,> 20 µg/mL,30%
Cc1ccc(S(=O)(=O)NC(=O)NC2CCC(O)CC2)cc1 (configuration not stated),> 20 µg/mL,0%
Cc1ccc(S(=O)(=O)NC(=O)Nc2cccnc2)cc1,> 20 µg/mL,1%
Cc1ccc(S(=O)(=O)NC(=O)Nc2ccc(OC(F)(F)F)cc2)cc1,18.4 µg/mL,17%
Cc1ccc(S(=O)(=O)NC(=O)Nc2ccc3[nH]ncc3c2)cc1,> 20 µg/mL,0%
Cc1ccc(S(=O)(=O)NC(=O)Nc2ccc3c(c2)C(=O)CC3)cc1,> 20 µg/mL,0%
Cc1ccc(S(=O)(=O)NC(=O)Nc2ccc(C#N)cc2)cc1,> 20 µg/mL,31%
COc1ccc(NC(=O)NS(=O)(=O)c2ccc(C)cc2)cc1Cl,> 20 µg/mL,0%
O=C(Nc1ccc(Cl)cc1)NS(=O)(=O)c1ccc(Oc2ccccc2)cc1,19.7 µg/mL,32%
O=C(Nc1ccc(F)cc1)NS(=O)(=O)c1ccc2c(c1)CCC2,> 20 µg/mL,39%
N#Cc1cccc(S(=O)(=O)NC(=O)Nc2ccc(Cl)cc2)c1,13.1 µg/mL,19%
Cc1ccc(S(=O)(=O)NC(=O)Nc2ccc(Cl)cc2C(F)(F)F)cc1,> 20 µg/mL,24%
CCOc1cccc(NC(=O)NS(=O)(=O)c2ccc(C)cc2)c1,> 20 µg/mL,6%
Cc1ccc(NC(=O)NS(=O)(=O)c2ccc(C)cc2)cc1,11.6 µg/mL,91%
O=C(Nc1ccc(C(F)(F)F)cc1)NS(=O)(=O)c1ccc2c(c1)CCC2,12 µg/mL,71%
Cc1ccc(S(=O)(=O)NC(=O)Nc2cc(C(C)(C)C)on2)cc1,,5%
Cc1ccc(S(=O)(=O)NC(=O)Nc2ccc(Cl)c(C(F)(F)F)c2)cc1,18.6 µg/mL,18%
Cc1ccc(S(=O)(=O)NC(=O)Nc2ccc(Cl)cn2)cc1,> 20 µg/mL,43%
CCOC(=O)c1ccc(NC(=O)NS(=O)(=O)c2ccc(C)cc2)cc1,> 20 µg/mL,12%
O=C(NCCc1ccccc1)NS(=O)(=O)c1ccc2ccccc2c1,> 20 µg/mL,0%

# Second part, led by results:
IC50 [1],SMILES,inhibition in vivo at 300 mg/kg [2]
> 20 µg/mL,Cc1ccc(S(=O)(=O)NC(=O)Nc2ncccn2)cc1,0%
15.2 µg/mL,O=C(Nc1ccc(Cl)cc1)NS(=O)(=O)c1cccc2ccccc12,29%
> 20 µg/mL,Cc1ccc(S(=O)(=O)NC(=O)Nc2c(F)cc(F)cc2F)cc1,27%
> 20 µg/mL,Cc1ccc(S(=O)(=O)NC(=O)Nc2ccc3c(c2)OCO3)cc1,54%
> 20 µg/mL,Cc1ccc(S(=O)(=O)NC(=O)Nc2c(F)c(F)cc(F)c2F)cc1,0%
17.6 µg/mL,O=C(Nc1ccc(Br)cc1)NS(=O)(=O)c1ccc2c(c1)CCC2,92%
> 20 µg/mL,CCc1cccc(NC(=O)NS(=O)(=O)c2ccc(C)cc2)c1,0%
14.5 µg/mL,O=C(Nc1ccc(F)cc1)NS(=O)(=O)c1ccc(Cl)cc1,74%
9.1 µg/mL,O=C(Nc1ccc(Cl)cc1)NS(=O)(=O)c1ccc2c(c1)OCO2,100%
13.8 µg/mL,CCCc1ccc(S(=O)(=O)NC(=O)Nc2ccc(Cl)cc2)cc1,79%
> 20 µg/mL,O=C(Nc1ccc(Cl)cc1)NS(=O)(=O)c1ccc(CO)cc1,15%
> 20 µg/mL,Cc1ccc(S(=O)(=O)NC(=O)Nc2ccc(-c3ccccc3)cc2)cc1,0%
> 20 µg/mL,Cc1ccc(S(=O)(=O)NC(=O)Nc2ccccc2C)cc1,32%
> 20 µg/mL,Cc1ccc(S(=O)(=O)NC(=O)Nc2ccc(OCc3ccccc3)cc2)cc1,0%
> 20 µg/mL,Cc1ccc(S(=O)(=O)NC(=O)Nc2nc[nH]n2)cc1,0%
9.1 µg/mL,O=C(Nc1ccc(Cl)c(Cl)c1)NS(=O)(=O)c1ccc2c(c1)CCC2,97%
13.6 µg/mL,Cc1ccc(S(=O)(=O)NC(=O)Nc2ccc(Cl)cc2)cc1C,100%
> 20 µg/mL,CSc1cccc(NC(=O)NS(=O)(=O)c2ccc(C)cc2)c1,20%
7.3 µg/mL,Cc1ccc(S(=O)(=O)NC(=O)Nc2ccc(Br)c(C)c2)cc1,81%
12.4 µg/mL,CCc1ccc(S(=O)(=O)NC(=O)Nc2ccc(Cl)cc2)cc1CC,46%
> 20 µg/mL,Cc1ccc(S(=O)(=O)NC(=O)Nc2cc(Cl)cc(Cl)c2)cc1,21%
> 20 µg/mL,Cc1ccc(S(=O)(=O)N(C)C(=O)Nc2ccc(Cl)cc2)cc1,17%
> 20 µg/mL,Cc1ccc(S(=O)(=O)NC(=O)Nc2ccc(O)cc2)cc1,10%
19.7 µg/mL,CCCCc1ccc(NC(=O)NS(=O)(=O)c2ccc(C)cc2)cc1,8%
> 20 µg/mL,Cc1ccc(S(=O)(=O)NC(=O)Nc2ccc(OCC(F)(F)F)cc2)cc1,30%
> 20 µg/mL,CSc1ccc(NC(=O)NS(=O)(=O)c2ccc(C)cc2)cc1,17%
7.3 µg/mL,Cc1ccc(S(=O)(=O)NC(=O)Nc2ccc(Cl)c(C)c2)cc1,85%
> 20 µg/mL,Cc1ccc(S(=O)(=O)NC(=O)Nc2nc(Cl)cc(Cl)n2)cc1,0%
> 20 µg/mL,Cc1ccc(S(=O)(=O)NC(=O)Nc2nncs2)cc1,16%
> 20 µg/mL,Cc1ccc(S(=O)(=O)NC(=O)Nc2cnccn2)cc1,0%
